Source: US12238268B2, “Imaging systems and methods” (priority 2012, dated 2025)
Positions of bridges follow the written chain, without caps; N, C: chain ends. Non-standard residues stand in square brackets, D forms with d. Residues, ends and D or L forms follow the SMILES beside them. *: point of attachment. X1 = CC1(C)C(/C=C/C=C/C=C/C=C2/N(CCC(=O)*)c3ccc4ccccc4c3C2(C)C)=[N+](CCC(=O)[O-])c2ccc3ccccc3c21

Key:
[1] = Biological stability in serum; assay type: in vitro ADME; conditions: hydrolysis through L-amino acid residues
Text: (§1) An example of a tumor-targeted molecular probe is LS-301, which has the structure, Cypate-cyclo (D-Cys-Gly-Arg-Asp-Ser-Pro-Cys)-Lys-OH. The spectral properties of LS-301 are suitable for NIR imaging applications (e.g., excitation/emission 790/810 nm in 20% DMSO solution; fluorescence quantum yield (ψ) 0.1 referenced to ICG). […] In addition to conferring tumor selectivity on LS-301, the unnatural D-cysteine on the peptide moiety confers higher stability because of its resistance to degradation by proteases. This biological stability in serum allows initial imaging and potential follow-up surgery to be conducted within 48 hours before subsequent hydrolysis of the probe through L-amino acid residues.

[2] = molecular target: ABIR (Homo sapiens, UniProt P05106+P06756); assay: ABIR binding affinity; conditions: relative to reference cypate-labeled RGD peptide
Chain of ABIR (P06756 31-889 limits assumed): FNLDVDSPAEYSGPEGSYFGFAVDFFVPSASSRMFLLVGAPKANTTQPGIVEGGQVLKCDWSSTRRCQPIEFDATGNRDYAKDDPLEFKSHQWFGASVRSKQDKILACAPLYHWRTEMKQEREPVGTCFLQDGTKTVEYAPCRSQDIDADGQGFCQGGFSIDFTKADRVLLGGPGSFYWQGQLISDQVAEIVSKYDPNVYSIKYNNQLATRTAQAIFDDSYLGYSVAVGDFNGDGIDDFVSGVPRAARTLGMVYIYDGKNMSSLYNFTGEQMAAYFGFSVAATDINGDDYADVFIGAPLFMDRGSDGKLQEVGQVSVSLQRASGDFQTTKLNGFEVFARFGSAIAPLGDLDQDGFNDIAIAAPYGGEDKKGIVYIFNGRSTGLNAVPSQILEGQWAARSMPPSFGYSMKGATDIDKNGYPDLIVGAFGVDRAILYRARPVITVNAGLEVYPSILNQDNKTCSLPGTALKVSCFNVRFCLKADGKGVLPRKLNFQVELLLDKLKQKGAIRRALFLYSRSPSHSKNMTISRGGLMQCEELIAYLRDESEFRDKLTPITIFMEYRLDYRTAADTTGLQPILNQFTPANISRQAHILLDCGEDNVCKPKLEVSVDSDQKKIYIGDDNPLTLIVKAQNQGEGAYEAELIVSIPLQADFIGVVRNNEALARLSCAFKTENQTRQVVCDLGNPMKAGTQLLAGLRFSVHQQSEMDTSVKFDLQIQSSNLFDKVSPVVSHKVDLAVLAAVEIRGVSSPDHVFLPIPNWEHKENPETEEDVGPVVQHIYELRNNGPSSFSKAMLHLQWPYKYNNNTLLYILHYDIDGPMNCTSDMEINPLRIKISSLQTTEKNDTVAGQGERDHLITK
Chain of ABIR (P06756 891-1048 partner limits assumed): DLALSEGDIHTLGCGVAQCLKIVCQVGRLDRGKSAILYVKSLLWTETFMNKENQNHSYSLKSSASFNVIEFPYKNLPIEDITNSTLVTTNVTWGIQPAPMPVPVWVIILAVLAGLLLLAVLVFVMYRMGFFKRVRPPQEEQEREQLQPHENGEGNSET
Chain of ABIR (P05106 27-788): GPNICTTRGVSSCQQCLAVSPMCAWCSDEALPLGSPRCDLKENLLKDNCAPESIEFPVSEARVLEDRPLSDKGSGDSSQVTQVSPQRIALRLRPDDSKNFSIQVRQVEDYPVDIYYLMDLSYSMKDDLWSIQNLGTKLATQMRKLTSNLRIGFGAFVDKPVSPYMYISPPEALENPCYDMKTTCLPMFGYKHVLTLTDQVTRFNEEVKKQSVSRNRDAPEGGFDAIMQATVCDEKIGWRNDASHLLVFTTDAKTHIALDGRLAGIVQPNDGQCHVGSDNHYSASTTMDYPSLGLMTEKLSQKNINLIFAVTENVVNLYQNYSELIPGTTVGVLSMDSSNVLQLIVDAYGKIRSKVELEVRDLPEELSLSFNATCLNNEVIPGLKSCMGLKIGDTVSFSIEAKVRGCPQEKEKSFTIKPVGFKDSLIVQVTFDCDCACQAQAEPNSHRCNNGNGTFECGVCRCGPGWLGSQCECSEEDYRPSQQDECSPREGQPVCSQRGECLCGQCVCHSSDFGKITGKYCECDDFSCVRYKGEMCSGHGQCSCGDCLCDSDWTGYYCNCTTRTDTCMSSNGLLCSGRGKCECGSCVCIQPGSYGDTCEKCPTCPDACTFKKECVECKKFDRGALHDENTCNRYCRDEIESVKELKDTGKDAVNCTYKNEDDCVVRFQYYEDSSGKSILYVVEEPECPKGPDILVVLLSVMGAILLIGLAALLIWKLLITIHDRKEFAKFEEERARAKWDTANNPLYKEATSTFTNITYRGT
Text: as §1

[3] = test system: liver tumors; assay: Goggle-aided fluorescence imaging of liver tumors, mice; assay type: in vivo; conditions: goggle device 102
Method: (§2) In another example, a multimodal detection technique was implemented in which goggle-aided fluorescence imaging (e.g., using goggle device 102 (shown in FIG. 1) and indocyanine green dye) was combined with ultrasound imaging and standard histology. Specifically, fluorescence imaging was used to detect liver tumors in mice and to perform liver resections on the tumors. […] Further, liver resection was performed on a rabbit using ultrasound, fluorescence imaging, and standard histology. […] The excised tissues were later examined by histopathology, and it was confirmed that the tumors were cancerous.

[4] = test system: hepatocellular carcinoma (HCC); assay: Goggle-aided fluorescence imaging of hepatocellular carcinoma in patients; assay type: in vivo; conditions: human patients
Text: In another example, goggle device 102 (shown in FIG. 1) and indocyanine green dye were used to image hepatocellular carcinoma (HCC) in human patients. Both intravenous and transarterial hepatic (TAH) delivery of indocyanine green dye were used. […] Histologic validation was used to confirm HCC in the patients.

[5] = test system: tumors; assay: Goggle-aided fluorescence imaging and liver resection, rabbit; assay type: in vivo; conditions: fluorescence goggle system 100, confirmed by ultrasound and histopathology
Method: as §2

Row | SMILES | biological stability in serum: time for imaging and follow-up surgery before hydrolysis of the probe [1] [hours] | Ki [2] [nM] | detection of liver tumors by fluorescence imaging [3] | HCC-to-liver fluorescence contrast, TAH delivery instead of intravenous delivery ([4]; goggle device 102) | detection of HCC tumors by fluorescence imaging ([4]; intravenous and transarterial hepatic (TAH) delivery) | observation of tumors by fluorescence imaging [5]
1 | CC1(C)C(/C=C/C=C/C=C/C=C2/N(CCC(=O)N[C@@H]3CSSC[C@@H](C(=O)N[C@@H](CCCCN)C(=O)O)NC(=O)[C@@H]4CCCN4C(=O)[C@H](CO)NC(=O)[C@H](CC(=O)O)NC(=O)[C@H](CCCNC(=N)N)NC(=O)CNC3=O)c3ccc4ccccc4c3C2(C)C)=[N+](CCC(=O)[O-])c2ccc3ccccc3c21 [LS-301, Cypate-cyclo (D-Cys-Gly-Arg-Asp-Ser-Pro-Cys)-Lys-OH] (X1-[dC]GRDSPCK-OH; disulfide 1-7) | ≤ 48 | 26.2 ± 0.4 | – | – | – | –
2 | CC1(C)C(/C=C/C=C/C=C/C=C2\N(CCCCS(=O)(=O)O)c3ccc4ccccc4c3C2(C)C)=[N+](CCCCS(=O)(=O)[O-])c2ccc3ccccc3c21 [indocyanine green dye, indocyanine green] | – | – | In addition to single tumors, scattered satellite lesions were also detected | significantly higher | Primary tumors and satellite tumors were both detected | observed in real-time
